Results taken from US8431596B2 (Cancer Research Technology Limited, priority 2007, dated 2013).

Target: T1, AXL (human catalytic domain) (Homo sapiens, UniProt P30530)
T1 construct: purchased Upstate Ltd. 14-512
T1 sequence (P30530 473-894): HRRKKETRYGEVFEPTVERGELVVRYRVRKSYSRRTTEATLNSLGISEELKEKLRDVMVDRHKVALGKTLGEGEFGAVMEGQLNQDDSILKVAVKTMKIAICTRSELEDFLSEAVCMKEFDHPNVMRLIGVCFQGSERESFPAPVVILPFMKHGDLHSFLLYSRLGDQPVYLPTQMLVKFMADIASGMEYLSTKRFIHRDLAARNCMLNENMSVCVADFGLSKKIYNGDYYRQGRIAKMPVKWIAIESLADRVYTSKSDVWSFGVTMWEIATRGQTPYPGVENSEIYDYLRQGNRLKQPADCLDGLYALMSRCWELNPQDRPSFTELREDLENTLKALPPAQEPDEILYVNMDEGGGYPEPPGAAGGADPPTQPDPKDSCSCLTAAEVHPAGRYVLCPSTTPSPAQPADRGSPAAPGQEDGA
Experiment: AXL (human catalytic domain) Enzyme Activity Assay (IMAP fluorescence polarisation)
Format: biochemical
Protocol: Biological Methods AXL (human catalytic domain) Enzyme Activity Assay Reagents
Kinase Assay Reaction Buffer: This consisted of 20 mM HEPES pH 7.0, 10 mM MgCl2, 1 mM DTT, […], 0.01% Triton X100 (v/v), and 0.01% BSA (w/v). All buffer components were purchased from Sigma-Aldrich at reagent grade or higher.
Kinase: Recombinant AXL isoform 1 (aa473-894 corresponding to Genbank Accession Number NP 068713) at 2 mg/mL (20.8 μM) was purchased from Upstate Ltd. (Product code 14-512, lot #28164U). The enzyme was stored at −80° C. and a working stock was prepared to a concentration of 30 nM by diluting 20.8 μM stock 1:693 in cold (4° C.) 1× Reaction Buffer. Final enzyme concentration in the assay was 15 nM.
Substrate: Fluorescein labelled CSK-tide 5FAM-[…]-NH2 was obtained from Molecular Devices (Product code R7270) and used at a working concentration of 200 nM by diluting the 100 μM stock 1:500 in 1× Reaction Buffer in a mix with the enzyme. A negative control (lacking enzyme) was prepared at the same concentrations. Final substrate concentration in the assay was 100 nM.
ATP: Supplied by Sigma (product code A-7699). A 100 mM ATP stock was prepared in […] and used at a working concentration of 375 μM by diluting the 100 mM stock 1:266.6 in Reaction Buffer. Final ATP concentration in the assay was 150 μM; this concentration represents the KM.ATP for this enzyme calculated in this assay.
IMAP Reagents: IMAP screening express kit was obtained from Molecular Devices (product code R8127). The binding reagent was gently re-suspended before diluting by 1:1000 in buffer (Binding Buffer is supplied as a 5× stock and so was diluted with water prior to use—this assay used 40% buffer A and 60% buffer B) and then vortexed before addition to wells. The binding reagent was used at a final dilution of 1:1333.
1 μL samples of test compounds in 10% DMSO/water were added to “test” wells by dry-spotting using a Matrix Platemate Plus. 5 μL Kinase/Substrate in Reaction Buffer were added to columns 1-22 of a Corning black low binding 384 well #6754 (90 μL volume) microplate to give 12 nM and 100 nM reaction concentration respectively. 5 μL substrate in Reaction Buffer was added to columns 23 and 24 to give 100 nM reaction concentration. 4 μL ATP in Reaction Buffer was added to all wells to give 150 μM reaction concentration. The reaction mixture was then incubated at room temperature for 60 minutes. The incubation period was followed by the addition of 20 μL IMAP Binding Reagent in Binding Buffer to all wells. The IMAP reaction detection was further incubated at room temperature overnight. The FP on a Tecan Ultra Plate reader was recorded as a single read at Ex485 Em535.
Percentage inhibition was calculated based on activity of the test sample minus the average values in the blank wells relative to the average values measured in control wells minus the average values in the blank wells.
IC50 values were calculated from 10 point dose sigmoid ‘dose-response’ curves using XIfit software (IDBS Inc, USA). Data were fitted to a 4 parameter logistic model/sigmoidal dose response defined by the following equation:
[formula] where: • A=fit minimum (locked to 0); • B=fit maximum (locked to 100); • C=fit midpoint (pre-fit to 1); and • D=slope at linear portion of curve, hillslope (pre-fit to 0.1).
The value for C represents the IC50 of the test compound.

[1] = further data set (WW-001 through WW-169, XX-001 through XX-469, YY-001 through YY-016, ZZ-001 through ZZ-003), 150 μM ATP
[2] = first data set, recombinant AXL isoform 1 aa473-894, 150 μM ATP

IC50 [1]	IC50 [2]	Structure (SMILES)
1000 to 10000 nM		O=C(Nc1cccc(Cl)c1)c1cccc(-c2cccc3nc(Nc4ccc(OCCN5CCCC5)cc4)nn23)c1 [XX-322]
100 to 1000 nM		c1cc(-c2ccsc2)cc(-c2cccc3nc(Nc4ccc(OCCN5CCCC5)cc4)nn23)c1 [XX-166]
100 to 1000 nM		CNCCOc1ccc(Nc2nc3cccc(-c4ccc5c(c4)OCCO5)n3n2)cc1C [XX-103]
100 to 1000 nM		Fc1ccc(Nc2nc3cccc(-c4ccc5c(c4)OCCO5)n3n2)cc1OCCN1CCCC1 [XX-134]
100 to 1000 nM		COc1ccc(-c2cccc3nc(Nc4ccc(C(=O)NCCN5CCCC5)o4)nn23)cc1 [XX-408]
1000 to 10000 nM	1000 to 10000 nM	O=C(Nc1nc2cccc(-c3cccc(CO)c3)n2n1)C1CC1 [WW-028]
1000 to 10000 nM	1000 to 10000 nM	CC(C)CNc1cccc2nc(NC(=O)C3CC3)nn12 [WW-079]
100 to 1000 nM	< 1000 nM	O=C(Nc1nc2cccc(-c3ccc4cc[nH]c4c3)n2n1)C1CC1 [WW-106]
≤ 100 nM		O=S(=O)(c1ccccc1Cl)n1cc(-c2cccc3nc(Nc4ccc(OCCN5CCCC5)cc4)nn23)cn1 [XX-378]
100 to 1000 nM		CCN(CC)CCOc1cccc(Nc2nc3cccc(-c4ccc5c(c4)OCCN5C)n3n2)c1 [XX-096]
100 to 1000 nM		COc1ccc(-c2cccc3nc(Nc4ccc(OCCN5CCCC5)cc4)nn23)cc1F [XX-240]
1000 to 10000 nM	1000 to 10000 nM	CC(C)(C)OC(=O)Nc1ccc(-c2cccc3nc(NC(=O)C4CC4)nn23)cc1 [WW-110]
100 to 1000 nM		c1cc(-c2ccc3c(c2)OCCO3)n2nc(Nc3ccnc(OCCN4CCCC4)c3)nc2c1 [XX-099]
100 to 1000 nM		Cc1csc(SCCn2cc(-c3cccc4nc(Nc5ccc(OCCN6CCCC6)cc5)nn34)cn2)n1 [XX-424]
1000 to 10000 nM	1000 to 10000 nM	O=C(Nc1nc2cccc(-c3ccc(N4CCNCC4)cc3)n2n1)C1CC1 [WW-151, Cyclopropanecarboxylic acid [5-(4-piperazin-1-yl-phenyl)-[1,2,4]triazolo[1,5-a]pyridin-2-yl]-amide]
100 to 1000 nM		COc1cccc(CNc2cccc(-c3cccc4nc(Nc5ccc(OCCN6CCCC6)cc5)nn34)c2)c1 [XX-452]
1000 to 10000 nM	< 1000 nM	COc1ccc(-c2cccc3nc(Nc4ccc(C(=O)NCCN(C)C)cc4)nn23)cc1 [XX-036]
100 to 1000 nM		Fc1cccc(Cn2cc(-c3cccc4nc(Nc5ccc(OCCN6CCCC6)cc5)nn34)cn2)c1 [XX-367]
1000 to 10000 nM	1000 to 10000 nM	Cc1cc(-c2cccc3nc(NC(=O)C4CC4)nn23)cnc1F [WW-088]
100 to 1000 nM		Cc1cccc(CS(=O)(=O)n2cc(-c3cccc4nc(Nc5ccc(OCCN6CCCC6)cc5)nn34)cn2)c1 [XX-286]
1000 to 10000 nM		COc1ccc(-c2cccc3nc(Nc4ccc(OCCN5CCCC5)cc4)nn23)cc1OC [XX-245]
100 to 1000 nM		FC(F)(F)c1ccc(-c2nccc3nc(Nc4ccc(OCCN5CCCC5)cc4)nn23)cc1 [YY-013]
≤ 100 nM	< 1000 nM	COc1ccc(-c2cccc3nc(Nc4ccc(OCCN)cc4)nn23)cc1 [XX-046]
≤ 100 nM		OCc1cccc(-c2cccc3nc(Nc4ccc(OCCN5CCCC5)cc4)nn23)c1 [XX-090, (3-{2-[4-(2-Pyrrolidin-1-yl-ethoxy)-phenylamino]-[1,2,4]triazolo[1,5-a]pyridin-5-yl}-phenyl)-methanol]
100 to 1000 nM		O=C(Nc1ccc(-c2cccc3nc(Nc4ccc(OCCN5CCCC5)cc4)nn23)cc1)c1ccno1 [XX-250]
≤ 100 nM	< 1000 nM	COc1ccc(-c2cccc3nc(Nc4ccc(OCCN(C)Cc5ccc(N)cc5)cc4)nn23)cc1 [XX-067]

IC50 [1]	IC50 [2]	Structure (SMILES)
1000 to 10000 nM		NCc1cccc(-c2cccc3nc(Nc4ccc(OCCN5CCCC5)cc4)nn23)c1 [XX-308, [5-(3-Aminomethyl-phenyl)-[1,2,4]triazolo[1,5-a]pyridin-2-yl]-[4-(2-pyrrolidin-1-yl-ethoxy)-phenyl]-amine]
1000 to 10000 nM	1000 to 10000 nM	O=C(Nc1nc2cccc(-c3cccc(-n4cccn4)c3)n2n1)C1CC1 [WW-137]
1000 to 10000 nM	1000 to 10000 nM	CC(=O)Nc1ccc(-c2cccc3nc(NC(=O)C4CC4)nn23)cc1 [WW-068]
1000 to 10000 nM		CN(C)C(=O)c1ccc(-c2cccc3nc(Nc4ccc(OCCN5CCCC5)cc4)nn23)cc1 [XX-239]
1000 to 10000 nM	1000 to 10000 nM	CCOc1ccc(-c2cccc3nc(NC(=O)C4CC4)nn23)cc1F [WW-101]
1000 to 10000 nM	1000 to 10000 nM	COc1ccc(-c2cccc3nc(NC(=O)CC(C)C)nn23)cc1 [WW-043]
100 to 1000 nM	< 1000 nM	c1cc(-c2ccc3c(c2)CCO3)n2nc(Nc3ccc(N4CCNCC4)cc3)nc2c1 [XX-059]
100 to 1000 nM		O=C(Nc1cccc(-c2cccc3nc(Nc4ccc(OCCN5CCCC5)cc4)nn23)c1)c1ccco1 [XX-181]
≤ 100 nM	< 1000 nM	CN(C)C/C=C/c1ccc(Nc2nc3cccc(-c4ccc5c(c4)OCCO5)n3n2)cc1 [XX-082]
100 to 1000 nM	< 1000 nM	Cn1cc(-c2cccc3nc(Nc4ccc(OCCN5CCCC5)cc4)nn23)cn1 [XX-017]
100 to 1000 nM		CCN(CC)CCOc1cccc(Nc2nc3cccc(-c4ccc(N(C)C)c(C)c4)n3n2)c1 [XX-147]
1000 to 10000 nM	1000 to 10000 nM	COCc1ccc(-c2cccc3nc(NC(=O)C4CC4)nn23)cc1 [WW-016]
100 to 1000 nM		Cc1cc(COc2cccc(-c3cccc4nc(Nc5ccc(OCCN6CCCC6)cc5)nn34)c2)nn1C [XX-460]
100 to 1000 nM		CC(C)Oc1ccc(-c2cccc3nc(Nc4ccc(OCCCN5CCCCC5)cc4)nn23)cc1 [XX-420]
100 to 1000 nM		c1cc(-c2cncnc2)cc(-c2cccc3nc(Nc4ccc(OCCN5CCCC5)cc4)nn23)c1 [XX-469]
100 to 1000 nM		CS(=O)(=O)OCCn1cc(-c2cccc3nc(Nc4ccc(OCCN5CCCC5)cc4)nn23)cn1 [XX-091, Methanesulfonic acid 2-(4-{2-[4-(2-pyrrolidin-1-yl-ethoxy)-phenylamino]-[1,2,4]triazolo[1,5-a]pyridin-5-yl}-pyrazol-1-yl)-ethyl ester]
100 to 1000 nM		CC(C)(C)NC(=O)NCc1cccc(-c2cccc3nc(Nc4ccc(OCCN5CCCC5)cc4)nn23)c1 [XX-372]
100 to 1000 nM	< 1000 nM	O=C(Nc1nc2cccc(-c3ccsc3)n2n1)C1CC1 [WW-059]
1000 to 10000 nM	1000 to 10000 nM	O=C(Nc1nc2cccc(-c3cccs3)n2n1)C1CC1 [WW-057]
100 to 1000 nM	< 1000 nM	COc1ccc(-c2cccc3nc(Nc4cccc(OCCN5CCOCC5)c4)nn23)cc1 [XX-014]
≤ 100 nM	< 1000 nM	COc1ccc(-c2cccc3nc(Nc4ccc(N)cc4)nn23)cc1 [XX-007]
1000 to 10000 nM		CC(C)(C)OC(=O)Nc1cccc(-c2cccc3nc(Nc4ccc(OCCN5CCCC5)cc4)nn23)c1 [XX-156]
1000 to 10000 nM		Cc1ccc(COc2cccc(-c3cccc4nc(Nc5ccc(OCCN6CCCC6)cc5)nn34)c2)cc1 [XX-457]
1000 to 10000 nM	1000 to 10000 nM	COc1cccc(-c2cccc3nc(NC(=O)C4CC4)nn23)c1 [WW-024]
100 to 1000 nM		Oc1ccc(-c2cccc3nc(Nc4ccc(OCCN5CCCC5)cc4)nn23)cc1 [XX-151]
